Here are results for five molecules from article PMC12844237, “A Novel Quinolone JH62 (E-2-(Tridec-4-en-1-yl)-quinolin-4(1H)-one) from Pseudomonas aeruginosa Exhibits Potent Anticancer Activity” (Microorganisms, 2025).

The test system of data set [1] is A549 cells. Conditions: cited from earlier work.
Data set [2] relates to HCT116: human colon cancer cell lines. The data set is described as follows: WST-1 cell viability, HCT116. Conditions: HCT-116, HCT116 (colon) cancer cell line. It is filed as cell-based. The text has this:
(§1) Different cells were utilized as follows: MEF: murine embryonic fibroblast (RRID: CVCL_L690); AML12: mouse liver cell lines (RRID: CVCL_0140); WI-38: human lung fibroblast cell lines (RRID: CVCL_0579); THLE-2: human liver epithelial cell lines (RRID: CVCL_3803); A549: human lung cancer cell lines (RRID: CVCL_0023); HEPG2: human liver cancer cell lines (RRID: CVCL_0027); HEP3B: human hepatoma cell lines (RRID: CVCL_0326); BxPC3: human pancreatic cancer cell lines (RRID: CVCL_0186); U87: human primary glioblastoma cell lines (RRID: CVCL_0022); DU145: human prostate cancer cell lines (RRID: CVCL_0105); MCF7: human breast cancer cell lines (RRID: CVCL_0031); HeLa: human cervical cancer cell lines (RRID: CVCL_0030); HCT116: human colon cancer cell lines (RRID: CVCL_0291). Cells were maintained in Dulbecco’s modified Eagle’s medium (DMEM, Gibco) supplemented with L-glutamine (Lonza) (2 mM), 10% fetal bovine serum (FBS, Hyclone), 1 × non-essential amino acids, and sodium pyruvate (1 mM). THLE-2 cells were maintained in THLE-2 Cell Complete Medium (Zhong Qiao Xin Zhou, Shanghai, China). Cells were incubated at 37 °C in a humidified incubator with 5% CO2. […]
(§2) Cell viability was assessed using the WST-1 assay, based on a previously reported method with slight modifications. […] Absorbance at OD450 was measured using a microplate reader (Synergy H1; BioTek Instruments, Winooski, VT, USA).
Background: Tetrazolium assays rely on reduction of a dye to a coloured formazan, in cell work by metabolically active cells.

In data set [3] the test system is THLE-2: human liver epithelial cell lines. The data set is described as follows: WST-1 cell viability, THLE-2. It is filed as cell-based. As to conditions: THLE-2, non-cancer cell line.
From the text: as §1, §2

Data set [4] concerns A549 cells. The data set is described as follows: DNA fragmentation analysis (genomic DNA electrophoresis). It counts as cell-based, human. As to conditions: A549, 24 h; JH62 5–100 µM, DOX 1 and 5 μM. As to the method: Genomic DNA fragmentation was analyzed by agarose gel electrophoresis using previously described methods. A549 cells were seeded in 6 cm tissue culture dishes and cultured overnight. Before treatment with JH62 or DOX, the cells were cultured in DMEM lacking FBS for 16 h. After treatment, the cells were then washed three times with PBS and genomic DNA was extracted using a MasterPure™ DNA Purification Kit (Lucigen Corporation, Middleton, WI, USA). The DNA pellet was airdried and resuspended in Tris-HCl (pH 8.0, 10 mM). DNA samples (2.5 μg) were separated by 1% agarose gel electrophoresis in TAE buffer containing ethidium bromide.

Another data set deals with cancer cell lines. Nature of the data set: WST-1 cell viability, panel of cancer cell lines. It counts as cell-based. Conditions: Homo sapiens; across the tested cancer cell lines. The protocol: (§3) Cell viability was assessed using the WST-1 assay, based on a previously reported method with slight modifications. Briefly, cells were seeded at 1 × 10^4 cells per well in 96-well plates and then treated with different doses of JH62 or DOX for 0–72 h. The cells used included non-cancer cells (MEF, AML12, WI-38, and THLE-2) and cancer cells (A549, HEPG2, HEP3B, BxPC3, U87, DU145, MCF7, HeLa, and HCT116). The WST-1 reagent (Roche, Shanghai, China) was added to each well (10% vol/vol final concentration), followed by incubation for 3 h at 37 °C. Absorbance at OD450 was measured using a microplate reader (Synergy H1; BioTek Instruments, Winooski, VT, USA).

The subject of data set [5] is MEF: murine embryonic fibroblast. The data set is described as follows: WST-1 cell viability, MEF. It is filed as cell-based. As to conditions: Mus musculus, non-cancer cell line.
From the text: as §1, §2

In data set [6] the test system is WI-38: human lung fibroblast cell lines. The data set is described as follows: WST-1 cell viability, WI-38. It counts as cell-based. As to conditions: WI-38, non-cancer cell line.
From the text: as §1, §2

The test system of data set [7] is AML12: mouse liver cell lines. Nature of the data set: WST-1 cell viability, AML12. As to conditions: AML12, non-cancer cell line. It is filed as cell-based.
From the text: as §1, §2

The test system of data set [8] is A549 cells. Nature of the data set: Comet assay. It is filed as cell-based, human. Conditions: A549, 1, 8, and 12 h. The protocol: Residual DNA damage was detected by alkaline single cell gel electrophoresis (Comet Assay) using the Trevigen Comet Assay Kit (Trevigen, Gaithersburg, MD, USA) following the manufacturer’s protocol with slight modifications. […] The treated cells were trypsinized and pelleted by centrifugation. The cell pellets were washed and resuspended in 2 mL of ice-cold PBS. The cell suspension was mixed 1:10 (vol/vol) with low-melting point agar at 42 °C and immediately pipetted onto a CometSlide™. Slides were incubated at 4 °C in the dark for 30 min, immersed in chilled lysis solution and incubated again at 4 °C for 30 min. Slides were placed in a horizontal electrophoresis chamber and electrophoresed with buffer NaOH (0.3 M) and EDTA (1 mM) at 1 V/cm for 15 min. Samples were dried and stained with Vista Green DNA dye (Cell Biolabs, Singapore). Comet tails were imaged using a model DM 2500 fluorescent microscope (Leica, Wetzlar, Germany) and quantified by Komet 5.5 software (Andor Technology, Belfast, UK). A minimum of 50 cells were scored per treatment. All experiments were performed independently in triplicate.

The subject of data set [9] is non-cancer cells (MEF, AML12, WI-38, and THLE-2). Nature of the data set: WST-1 cell viability, panel of non-cancer cells. It counts as cell-based. As to conditions: across non-cancer cells (MEF, AML12, WI-38, and THLE-2). The protocol: as §3
Data set [10] deals with HEPG2: human liver cancer cell lines. Nature of the data set: WST-1 cell viability, HEPG2. It counts as cell-based. Conditions: HEPG2 (liver) cancer cell line.
From the text: as §1, §2

Data set [11] relates to DU145: human prostate cancer cell lines. Nature of the data set: WST-1 cell viability, DU145. It counts as cell-based. As to conditions: DU-145, DU145 (prostate) cancer cell line.
From the text: as §1, §2

Data set [12] deals with MCF7: human breast cancer cell lines. Nature of the data set: WST-1 cell viability, MCF7. It counts as cell-based. Conditions: MCF7 (breast) cancer cell line.
From the text: as §1, §2

Data set [13] has as its system U87: human primary glioblastoma cell lines. Nature of the data set: WST-1 cell viability, U87. It counts as cell-based. Conditions: U87 (glioblastoma) cancer cell line.
From the text: as §1, §2

The subject of data set [14] is BxPC3: human pancreatic cancer cell lines. The data set is described as follows: WST-1 cell viability, BxPC3. Conditions: BXPC-3, BxPC3 (pancreatic) cancer cell line. It counts as cell-based.
From the text: as §1, §2

Data set [15] has as its system both non-cancer and cancer cells. Nature of the data set: WST-1 cell viability, non-cancer and cancer cells together. It is filed as cell-based. As to conditions: against both non-cancer and cancer cells.
Procedure: Cell viability was assessed using the WST-1 assay, based on a previously reported method with slight modifications [54]. […] The cells used included non-cancer cells (MEF, AML12, WI-38, and THLE-2) and cancer cells (A549, HEPG2, HEP3B, BxPC3, U87, DU145, MCF7, HeLa, and HCT116). The WST-1 reagent (Roche, Shanghai, China) was added to each well (10% vol/vol final concentration), followed by incubation for 3 h at 37 °C. Absorbance at OD450 was measured using a microplate reader (Synergy H1; BioTek Instruments, Winooski, VT, USA).
Data set [16] relates to A549 cells. Nature of the data set: Chromosome staining experiment. It is filed as cell-based, human. As to conditions: A549, 5 μM DOX or 25 μM JH62 for 6 h. As to the method:
Metaphase chromosome spreads were prepared from A549 cells. Briefly, A549 cells were cultured. After treatment with JH62 or DOX, cells were incubated with Colcemid (Gibco BRL; 0.2 μg/mL final concentration) for 2 h to arrest cells in metaphase. Cells were then subjected to hypotonic treatment in KCl (0.075 M) at 37 °C for 5 min, and fixed by repeated washing with ice-cold freshly prepared 3:1 (vol/vol) methanol:acetic acid. Chromosome spreads were prepared on premarked glass slides using the “drop-cryo” protocol. The chromosome suspension was dropped onto a slide. This was followed by adding three drops of 45% acetic acid and placing a coverslip over the suspension. The slide was then inverted and placed on dry ice for 15 min. The spreads were postfixed in 2.5% glutaraldehyde in cacodylate buffer (pH 7.4, 75 mM) for 15 min and washed with cacodylate buffer (0.1 M). The chromosomes were stained with Vista Green DNA dye (Cell Biolabs, Singapore). After staining, the preparations were washed in water for 5, 10, and 15 min, then dehydrated using a series of ethanol solutions as follows: 5 min in a 70% solution, 10 min in an 85% solution, and 15 min in 100% ethanol. Finally, slides were mounted with a permanent mounting medium, sealed, and analyzed by microscopy.

Data set [17] relates to HEP3B: human hepatoma cell lines. Nature of the data set: WST-1 cell viability, HEP3B. It is filed as cell-based. Conditions: HEP3B (liver) cancer cell line.
From the text: as §1, §2

Data set [18] relates to HeLa: human cervical cancer cell lines. Nature of the data set: WST-1 cell viability, HeLa. It is filed as cell-based. As to conditions: HeLa (cervical) cancer cell line.
From the text: as §1, §2

The test system of data set [19] is A549: human lung cancer cell lines. The data set is described as follows: WST-1 cell viability, A549. It is filed as cell-based. As to conditions: Homo sapiens, A549, A549 (lung) cancer cell line, WST-1.
From the text: Different cells were utilized as follows: MEF: murine embryonic fibroblast (RRID: CVCL_L690); AML12: mouse liver cell lines (RRID: CVCL_0140); WI-38: human lung fibroblast cell lines (RRID: CVCL_0579); THLE-2: human liver epithelial cell lines (RRID: CVCL_3803); A549: human lung cancer cell lines (RRID: CVCL_0023); HEPG2: human liver cancer cell lines (RRID: CVCL_0027); HEP3B: human hepatoma cell lines (RRID: CVCL_0326); BxPC3: human pancreatic cancer cell lines (RRID: CVCL_0186); U87: human primary glioblastoma cell lines (RRID: CVCL_0022); DU145: human prostate cancer cell lines (RRID: CVCL_0105); MCF7: human breast cancer cell lines (RRID: CVCL_0031); HeLa: human cervical cancer cell lines (RRID: CVCL_0030); HCT116: human colon cancer cell lines (RRID: CVCL_0291). Cells were maintained in Dulbecco’s modified Eagle’s medium (DMEM, Gibco) supplemented with L-glutamine (Lonza) (2 mM), 10% fetal bovine serum (FBS, Hyclone), 1 × non-essential amino acids, and sodium pyruvate (1 mM). THLE-2 cells were maintained in THLE-2 Cell Complete Medium (Zhong Qiao Xin Zhou, Shanghai, China). Cells were incubated at 37 °C in a humidified incubator with 5% CO2. A549 cells were previously stored in the lab and other cell lines were a gift from Haishan Wang’s lab (Institute of Molecular and Cell Biology, Singapore). All cell lines were confirmed to be contamination-free.
as §3

A further data set concerns HeLa. On the set-up: method as in PMID 8823519. As to conditions: HeLa ref 87; cited from earlier work.
For data set [20] the following is noted: clinically successful drugs; cited from earlier work.

Structures are written as SMILES. Read-outs that look alike come from different tables or passages of the source.

In general, IC50 refers to the point on the concentration scale where inhibition reaches its midpoint.

On to `Oc1cccc2cccnc12` [8-hydroxyquinoline], for which, in the data set with A549 cells [1] (A549 ref 85), the IC50 was 26 µM.

On to `COc1cccc2c1C(=O)c1c(O)c3c(c(O)c1C2=O)C[C@@](O)(C(=O)CO)C[C@@H]3O[C@H]1C[C@H](N)[C@H](O)[C@H](C)O1` [DOX, Doxorubicin, reference compound], for which the IC50 was 3.9 ± 0.7 µM in data set [2]; 1.2 ± 0.1 µM in [3]; 0.7 to 3.9 µM with cancer cell lines; 3.9 ± 0.4 µM in data set [5]; 1.9 ± 0.3 µM in data set [6]; 5.1 ± 1.3 µM in data set [7]. For the same molecule, the half-maximal inhibitory concentration (IC50) in [9] is 1.2 to 5.1 µM; in [10], 0.8 ± 0.1 µM; in [11], 1.9 ± 0.2 µM; in data set [12], 1.2 ± 0.5 µM; in data set [13], 1.4 ± 1 µM; in [14], 1.9 ± 0.1 µM. The concentration for half-maximal inhibition (IC50) was 0.5 to 5 µM in [15], 3.3 ± 0.2 µM in data set [17], 0.7 ± 0.7 µM in [18] and 2.1 ± 0.5 µM in [19]. Also, in the data set with A549 cells [4], the “genomic DNA integrity (electrophoresis)” value is listed as “obvious DNA fragmentation”. Also, the comet tail analysis entry in the data set on A549 cells [8] is “distinct and typical comet tail”. In the data set on A549 cells [16], the chromosome morphology result is “fragmented and adhered together”.

With `CCCCCC/C=C/Cc1c(C)c(=O)c2ccccc2n1O` [E-1-hydroxy-2-(non-2-enyl)-3-methyl-4-quinolone], the IC50 in the data set on HeLa was 1.9 µM.

`CCCCCCCc1[nH]c2ccccc2c(=O)c1O` [PQS, 2-heptyl-3-hydroxy-4(1H)-quinolone]: the IC50 in the data set on A549 cells [1] (A549 cells ref 82,83) was 19 µM.

Turning to `O=C1NC(=O)C(c2ccccc2)(c2ccccc2)N1` [phenytoin], the PPB entry in [20] is on record as “exceeding 98%”.
